The species entered for assay [1] is Rattus norvegicus. Briefly: In vitro percent inhibition of [3H]gabapentin binding at log molar concentration of -6.5.
The species named for assay [2] is Rattus norvegicus. In words: In vitro percent inhibition of [3H]gabapentin binding at log molar concentration of -5.5.
The species named for assay [3] is Rattus norvegicus. In words: In vitro percent inhibition of [3H]gabapentin binding at log molar concentration of -7.5.
The species entered for assay [4] is Rattus norvegicus. In words: In vitro percent inhibition of [3H]gabapentin binding at log molar concentration of -7.
Assay [5] is filed under the species Rattus norvegicus. In words: In vitro percent inhibition of [3H]gabapentin binding at log molar concentration of -5.
The species entered for assay [6] is Mus musculus. In words: Effective dose for anticonvulsant activity (blocking maximal electroshock seizures) in male CF-1 strain mice was measured. Format: functional. (In general: In the maximal electroshock model the usual endpoint is tonic extension of the hind limbs.)
Assay [7] can be described thus: In vitro inhibition of [3H]-gabapentin binding to partially purified rat neocortex synaptic plasma membranes. It is filed as cell membranes, Membrane.
Assay [8] is filed under the species Rattus norvegicus. Briefly: In vitro percent inhibition of [3H]gabapentin binding at log molar concentration of -6.
Assay [9] is filed under the species Rattus norvegicus. Briefly: In vitro percent inhibition of [3H]gabapentin binding at log molar concentration of -4.5.
The species entered for assay [10] is Rattus norvegicus. In words: In vitro percent inhibition of [3H]gabapentin binding at log molar concentration of -8.
Assay [11] is filed under the species Rattus norvegicus. Briefly: In vitro percent inhibition of [3H]gabapentin binding at log molar concentration of -4.
For assay [12], the species on record is Rattus norvegicus. In words: In vitro percent inhibition of [3H]gabapentin binding at log molar concentration of -8.5.
Assay [13] concerns Mus musculus. In words: Percent of mice protected in blocking maximal electroshock seizures test at a dose of 50 mg/kg, iv,. It is filed as functional.
The subject of assay [14] is Mus musculus. Briefly: Percent of mice protected in blocking maximal electroshock seizures test at a dose of 150 mg/kg, iv,. It is filed as functional.
The subject of assay [15] is Mus musculus. In words: Percent of mice protected in blocking maximal electroshock seizures test at a dose of 750 mg/kg, iv,. Format: functional.
The subject of assay [16] is Mus musculus. Briefly: Percent of mice protected in blocking maximal electroshock seizures test at a dose of 450 mg/kg, iv,. Format: functional.
The test system of assay [17] is Mus musculus. In words: Percent of mice protected in blocking maximal electroshock seizures test at a dose of 75 mg/kg, iv,. It is filed as functional.
Assay [18] relates to Mus musculus. Briefly: Percent of mice protected in blocking maximal electroshock seizures test at a dose of 100 mg/kg, iv,. Format: functional.
The subject of assay [19] is Mus musculus. Briefly: Percent of mice protected in blocking maximal electroshock seizures test at a dose of 500 mg/kg, iv,. Format: functional.

The structures appear in SMILES notation.

For orientation: inhibition means the drop in the measured response relative to a control, in per cent. High values mean a strong effect, low ones a weak effect. Broadly, the ED50 is the dose at which the effect has come halfway, by size or by number of responders. High values mean weaker potency, low ones greater potency. By IC50 is commonly meant the point on the concentration scale where inhibition reaches its midpoint. A higher IC50 goes with weaker potency in that assay. On to `CC(C)C[C@H](CN)CC(=O)O` [PREGABALIN], for which the inhibition worked out at 85% in the assay listed under Rattus norvegicus [1]; 94% in the assay listed under Rattus norvegicus [2]; 50% in the assay filed under Rattus norvegicus [3]; 75% in the assay listed under Rattus norvegicus [4]; 98% in the assay filed under Rattus norvegicus [5]; 90% in the assay filed under Rattus norvegicus [8]. Further, the values for the inhibition in the assay listed under Rattus norvegicus [9] and in the assay listed under Rattus norvegicus [10] were 100% and 25%, respectively. Also, in the assay filed under Mus musculus [6], the ED50 was 20 mg/kg. In assay [7], this molecule displayed a half-inhibitory concentration (IC50) of 37 nM.
For `CC(C)CC(CN)CC(=O)O` (racemic), the inhibition in the assay filed under Rattus norvegicus [1] was determined as 74%; in the assay filed under Rattus norvegicus [11], 100%; in the assay filed under Rattus norvegicus [2], 92%; in the assay listed under Rattus norvegicus [3], 30%; in the assay filed under Rattus norvegicus [12] it was 10%; in the assay listed under Rattus norvegicus [4] it was 50%. The inhibition in the assay filed under Rattus norvegicus [5] came to 94%; in the assay filed under Rattus norvegicus [8], 90%; in the assay filed under Rattus norvegicus [9], 98%; in the assay listed under Rattus norvegicus [10], 12%. This molecule showed an IC50 in assay [7] of 83 nM.
For the molecule `NCC1(CC(=O)O)CCCCC1` [GABAPENTIN], the Protected with Mus musculus [13] was around 1%; with Mus musculus [14], around 75%; in the assay with Mus musculus [15], around 99%; in the assay with Mus musculus [16] it was around 74%; in the assay with Mus musculus [17], around 70%. In the assay listed under Mus musculus [6], this molecule returned an ED50 of 87 mg/kg. In [7], this molecule came in with an IC50 of 80 nM.
As for `CC(C)C[C@@H](CN)CC(=O)O`, the inhibition in the assay listed under Rattus norvegicus [1] was determined as 38%; in the assay listed under Rattus norvegicus [2], 80%; in the assay filed under Rattus norvegicus [3], 10%; in the assay listed under Rattus norvegicus [4], 8%; in the assay listed under Rattus norvegicus [5] it was 80%; in the assay filed under Rattus norvegicus [8], 60%. Further, the inhibition in the assay filed under Rattus norvegicus [9] was found to be 90%; in the assay filed under Rattus norvegicus [10], 0%. Also, the figures for the Protection in the assay on Mus musculus [18] and in the assay on Mus musculus [19] were around 94% and around 1%, respectively. Moreover, the ED50 in the assay filed under Mus musculus [6] was above 300 mg/kg. In assay [7], this molecule yielded an IC50 of 620 nM.

The record behind these values is ChEMBL document CHEMBL1127270, “Enantioselective synthesis of PD144723: a potent stereospecific anticonvulsant” (Bioorg Med Chem Lett, 1994).
